Read-outs that look alike come from different tables or passages of the source.
Assays:
[1] = system: subjects with pulmonary hypertension; experiment: Oxygen saturation by pulse oximeter and methemoglobin by continuous percutaneous co-oximetry; assay type: in vivo, human
Description: Oxygen saturation measured by pulse oximeter and methemoglobin levels monitored by continuous percutaneous co-oximetry prior to dose administration and through 4 hours post-dose were monitored closely.

[2] = after inhalation
From the text: Measurement was made on mixed venous blood using PCW pullback samples at baseline (pre-dose) and at the maximally tolerated dose.

[3] = system: hypoxic and normoxic subjects; conditions: Ingram et al. (Am J. Phsiol. 298:H331-H339 (2010)); cited from earlier work
[4] = Patient 1, nitrite 45 mg inhaled, 15 min
[5] = Patient 1, nitrite 45 mg inhaled, 30 min
[6] = Patient 1, nitrite 45 mg inhaled, 45 min
[7] = Patient 1, nitrite 45 mg inhaled, 60 min
[8] = Patient 1, nitrite 90 mg inhaled, 15 min
[9] = Patient 1, nitrite 90 mg inhaled, 30 min
[10] = Patient 1, nitrite 90 mg inhaled, 45 min
[11] = Patient 1, nitrite 90 mg inhaled, 60 min
[12] = Patient 2, nitrite 45 mg inhaled, 15 min
[13] = Patient 2, nitrite 45 mg inhaled, 30 min
[14] = Patient 2, nitrite 45 mg inhaled, 45 min
[15] = Patient 2, nitrite 45 mg inhaled, 60 min
[16] = Patient 2, nitrite 90 mg inhaled, 15 min
[17] = Patient 2, nitrite 90 mg inhaled, 30 min
[18] = Patient 2, nitrite 90 mg inhaled, 45 min
[19] = Patient 2, nitrite 90 mg inhaled, 60 min
[20] = Patient 3, nitrite 45 mg inhaled, 15 min
[21] = Patient 3, nitrite 45 mg inhaled, 30 min
[22] = Patient 3, nitrite 45 mg inhaled, 45 min
[23] = Patient 3, nitrite 45 mg inhaled, 60 min
[24] = Patient 3, nitrite 90 mg inhaled, 15 min
[25] = Patient 3, nitrite 90 mg inhaled, 30 min
[26] = Patient 3, nitrite 90 mg inhaled, 45 min
[27] = Patient 3, nitrite 90 mg inhaled, 60 min
[28] = Patient 4, nitrite 45 mg inhaled, 15 min
[29] = Patient 4, nitrite 45 mg inhaled, 30 min
[30] = Patient 4, nitrite 45 mg inhaled, 45 min
[31] = Patient 4, nitrite 45 mg inhaled, 60 min
[32] = Patient 4, nitrite 90 mg inhaled, 15 min
[33] = Patient 4, nitrite 90 mg inhaled, 30 min
[34] = Patient 4, nitrite 90 mg inhaled, 45 min
[35] = Patient 4, nitrite 90 mg inhaled, 60 min
[36] = Patient 5, nitrite 45 mg inhaled, 15 min
[37] = Patient 5, nitrite 45 mg inhaled, 30 min
[38] = Patient 5, nitrite 45 mg inhaled, 45 min
[39] = Patient 5, nitrite 45 mg inhaled, 60 min
[40] = Patient 5, nitrite 90 mg inhaled, 15 min
[41] = Patient 5, nitrite 90 mg inhaled, 30 min
[42] = Patient 5, nitrite 90 mg inhaled, 45 min
[43] = Patient 5, nitrite 90 mg inhaled, 60 min

## O=NO [nitrite, sodium nitrite]
[1]; [4]
  Syst O2sat: 95
  metHgB: 1.1
[1]; [5]
  Syst O2sat: 100
  metHgB: 1.1
[1]; [6]
  Syst O2sat: 92
  metHgB: 1.3
[1]; [7]
  Syst O2sat: 92
  metHgB: 1.5
[1]; [8]
  Syst O2sat: 95
  metHgB: 1.4
[1]; [9]
  Syst O2sat: 94
  metHgB: 1.3
[1]; [10]
  Syst O2sat: 94
  metHgB: 1.2
[1]; [11]
  Syst O2sat: 94
  metHgB: 1.4
[1]; [12]
  Syst O2sat: 98
  metHgB: 1
[1]; [13]
  Syst O2sat: 99
  metHgB: 1
[1]; [14]
  Syst O2sat: 99
  metHgB: 1
[1]; [15]
  Syst O2sat: 99
  metHgB: 1
[1]; [16]
  Syst O2sat: 96
  metHgB: 1.4
[1]; [17]
  Syst O2sat: 98
  metHgB: 1.7
[1]; [18]
  Syst O2sat: 98
  metHgB: 1.7
[1]; [19]
  Syst O2sat: 100
  metHgB: 1.6
[1]; [20]
  Syst O2sat: 92
  metHgB: 1.1
[1]; [21]
  Syst O2sat: 94
  metHgB: 1.3
[1]; [22]
  Syst O2sat: 93
  metHgB: 1.5
[1]; [23]
  Syst O2sat: 94
  metHgB: 1.5
[1]; [24]
  Syst O2sat: 97
  metHgB: 1.7
[1]; [25]
  Syst O2sat: 95
  metHgB: 1.7
[1]; [26]
  Syst O2sat: 95
  metHgB: 1.6
[1]; [27]
  Syst O2sat: 95
  metHgB: 1.5
[1]; [28]
  Syst O2sat: 98
  metHgB: 1.3
[1]; [29]
  Syst O2sat: 98
  metHgB: 1.1
[1]; [30]
  Syst O2sat: 99
  metHgB: 1
[1]; [31]
  Syst O2sat: 97
  metHgB: 0.8
[1]; [32]
  Syst O2sat: 97
  metHgB: 1.7
[1]; [33]
  Syst O2sat: 97
  metHgB: 2
[1]; [34]
  Syst O2sat: 96
  metHgB: 1.2
[1]; [35]
  Syst O2sat: 96
  metHgB: 1.2
[1]; [36]
  Syst O2sat: 94
  metHgB: 1.1
[1]; [37]
  Syst O2sat: 98
  metHgB: 0.8
[1]; [38]
  Syst O2sat: 97
  metHgB: 0.7
[1]; [39]
  Syst O2sat: 94
  metHgB: 0.8
[1]; [40]
  Syst O2sat: 95
  metHgB: 0.9
[1]; [41]
  Syst O2sat: 97
  metHgB: 0.7
[1]; [42]
  Syst O2sat: 98
  metHgB: 0.7
[1]; [43]
  Syst O2sat: 97
  metHgB: 0.5
[1]; Patient 6, nitrite 45, 15 min
  Syst O2sat: 95
  metHgB: 1.1
[1]; Patient 6, nitrite 45, 30 min
  Syst O2sat: 99
  metHgB: 1.3
[1]; Patient 6, nitrite 45, 45 min
  Syst O2sat: 96
  metHgB: 1.3
[1]; Patient 6, nitrite 45, 60 min
  Syst O2sat: 96
  metHgB: 1.2
[1]; Patient 6, nitrite 90, 15 min
  Syst O2sat: 95
  metHgB: 1.9
[1]; Patient 6, nitrite 90, 30 min
  Syst O2sat: 95
  metHgB: 1.9
[1]; Patient 6, nitrite 90, 45 min
  Syst O2sat: 96
  metHgB: 1.7
[1]; Patient 6, nitrite 90, 60 min
  Syst O2sat: 95
  metHgB: 1.7
[1]; at the doses tested (45 mg and 90 mg inhaled)
  methemoglobin: does not significantly affect
[2]; 45 mg dose
  plasma nitrite concentration: 5 to 7 µM
[2]; 90 mg dose
  plasma nitrite concentration: 8 to 10 µM
[3]
  arterial and pulmonary vasodilation: causes arterial and pulmonary vasodilation in hypoxic but not normoxic subjects

Source: US11986493B2 (University of Pittsburgh—Of the Commonwealth System of …, priority 2013, dated 2024)
